Values of other authors, collected in patent publication US11311608B2, “Methods for treating breast and other cancers by targeting argininosuccinate synthetase 1-deficiency” (CITY OF HOPE, priority 2013, dated 2022).

Conditions: versus arginase

Arginine deiminase
effectiveness at depleting arginine from the environment relative to arginase: 300 fold
